Source: patent US20250281446A1, “COMPOSITIONS, SYSTEMS, AND METHODS FOR TREATING CANCER IN STANDARD OF CARE AND/OR PROFIBROTIC CHEMOTHERAPEUTIC AGENT-NAÏVE PATIENTS USING TUMOR TREATING FIELDS AND CHEMOTHERAPEUTIC AGENTS” (Novocure GmbH, priority 2024, published 2025)

Key:
[1] = test system: platinum-resistant ovarian cancer (PROC); assay: Randomized phase 3 study ENGOT-ov50/GOG-3029/INNOVATE-3 (NCT03940196): TTFields therapy with weekly paclitaxel vs weekly paclitaxel alone; type: in vivo, human
From the text: This randomized phase 3 study investigated TTFields therapy with paclitaxel (TTFields+PTX) vs paclitaxel (PTX) in patients with platinum-resistant ovarian cancer (PROC).
To evaluate the safety and efficacy of TTFields therapy with weekly paclitaxel compared to weekly paclitaxel alone in PROC, the Phase 3 study design shown in FIG. 1 was utilized. ENGOT-ov50/GOG-3029/INNOVATE-3 (NCT03940196) enrolled adults with PROC, ≤5 prior lines of therapy (LOT), ≤2 prior LOT following platinum-resistance, and ECOG 0-1. Patients received TTFields (200 kHz; ≥18 hours/day)+PTX (80 mg/m^2) weekly or PTX. Primary endpoint was overall survival (OS). 558 patients were randomized to receive TTFields+PTX (n=280) or PTX (n=278) March 2019 to November 2021.
Patients were heavily pretreated in the ITT population, as 24.4% of patients had received 4+prior lines of therapy (LOT), and 65.9% had received prior bevacizumab. In the overall intention-to-treat population, TTFields therapy median duration was 15.9 (0.1-159.7) weeks.
Innovate-3 study excluding patients that had received doxorubicin prior to TTFields+Paclitaxel or Paclitaxel
This Example contains further data related to the study of Example 1. FIGS. 10-11 include data of PROC patients that had received doxorubicin prior to treatment or were Doxorubicin-/PLD-naïve and which received treatment comprising TTFields plus Paclitaxel or Paclitaxel alone. With Doxorubicin treatment prior to use, overall survival was 10.97 months with TTFields and 13.21 months without TTFields. […] In addition, without prior use of doxorubicin/PLD, the hazard ratio for TTFields was 0.593 with a p value of 0.005.

[2] = test system: tumor; assay: Preclinical data (unpublished): tumor fibrosis and tissue conductivity

Row | SMILES | overall survival ([1]; Doxorubicin-/PLD-naïve group without prior use of doxorubicin (Example 2, FIGS. 10-11)) [months] | overall survival, post-hoc analysis ([1]; PLD-naïve subgroup (Example 1, FIG. 7), TTFields+PTX n=113, PTX n=88) [months] | median overall survival (OS) ([1]; overall ITT population, PROC patients, PTX 80 mg/m^2 weekly, TTFields 200 kHz, ≥18 hours/day) [months] | overall survival ([1]; patients with Doxorubicin treatment prior to use (Example 2, FIG. 10)) [months] | tissue conductivity [2] | tumor fibrosis [2]
1 | CC(=O)O[C@H]1C(=O)[C@@]2(C)[C@H]([C@H](OC(=O)c3ccccc3)[C@]3(O)C[C@H](OC(=O)[C@H](O)[C@@H](NC(=O)c4ccccc4)c4ccccc4)C(C)=C1C3(C)C)[C@]1(OC(C)=O)CO[C@@H]1C[C@@H]2O [PTX, paclitaxel] | 11.93 | 11.7 | 11.9 | 13.21 |  | 
2 | COc1cccc2c1C(=O)c1c(O)c3c(c(O)c1C2=O)C[C@@](O)(C(=O)CO)C[C@@H]3O[C@H]1C[C@H](N)[C@H](O)[C@H](C)O1 [doxorubicin] |  |  |  |  | changes tissue conductivity | induces tumor fibrosis
